{
  "source": "patent US10174096B2",
  "about": "“Feline bitter taste receptors and methods” (Applied Food Biotechnology, Inc., priority 2013, dated 2019)",
  "type_in_all_cases": "cell-based, feline",
  "key": {"fTAS2R38 [1]": {"system": "fTAS2R38", "assay": "Fluo-4AM calcium assay, cells transiently expressing fTAS2R38", "method": "Cell lines that transiently express a desired TAS2R disclosed herein were generated by transfecting the appropriate expression vector, e.g., pcDNA3.1D-FLAGV5His-TAS2R38, constructed as described above in Ex. 2A into cells of a eukaryotic cell line (Life Technologies, Cat# R700-07).\n(§1) On day 0, 60,000 cells per well were plated on poly lysine coated, black 96 well plates with clear bottoms (Costar). The following day the cells were transfected with 150 ng TAS2R38 expression vector, e.g., pcDNA3.1D-FLAGV5His (Invitrogen) along with 45 ng of Ga16 chimera containing the last 44 amino acids of rat gustducin (Gα16gust44) with 0.5 ul Lipofectamine 2000 (Invitrogen) per well. Cells were then incubated 22-44 hours at 37° C. 5% CO2.\nThe expression of fTAS2R38 was evaluated by testing for the presence of a functional response to a known hTAS2R38 ligand (e.g., PTC), determined via automated calcium imaging using a Fluo-4AM (Life Technologies Corporation) Calcium Assay. Fluo-4AM is a fluorescent indicator of intracellular calcium dynamics (change in concentration) and allows monitoring changes in the calcium concentration, particularly an increase in response to receptor activation occurring after agonist exposure.\n(§2) Testing for a functional response of fTAS2R38 to the known hTAS2R38 ligands, PTC and PROP, and of fTAS2R43 to the known hTAS2R43 ligands, aloin, denatonium and saccharine), was determined via automated calcium imaging using the Fluo-4AM (Life Technologies Corporation) Calcium Assay."}, "fTAS2R38 [2]": {"system": "fTAS2R38", "assay": "Fluo-4AM calcium assay, stable G[alpha]16-gustducin 44/TAS2R38 cell line", "excerpt": "Fluo-4AM is a fluorescent indicator of intracellular calcium dynamics (change in concentration) and allows monitoring changes in the calcium concentration, particularly an increase in response to receptor activation occurring after agonist exposure."}, "fTAS2R43": {"system": "fTAS2R43", "assay": "Fluo-4AM calcium assay, cells transiently expressing fTAS2R43", "method": "as §1\nGeneration of cell lines transiently expressing the other fTAS2Rs disclosed herein was analogous.\nas §2"}},
  "data": [
    {"compound": "NC(=S)Nc1ccccc1", "note": "[PTC, phenylthiocarbamide]", "values": [
      {"measurement": "activation over baseline", "setting": "fTAS2R38 [1]; 100 μM PTC, transiently transfected cells", "value": 81, "unit": "%"},
      {"measurement": "stimulation over baseline", "setting": "fTAS2R38 [2]; 100 μM PTC", "value": 90, "unit": "%"}
    ]},
    {"compound": "O=C1c2c(O)cccc2C([C@@H]2O[C@H](CO)[C@@H](O)[C@H](O)[C@H]2O)c2cc(CO)cc(O)c21", "note": "(stereo partly shown) [aloin]", "values": [
      {"measurement": "activation over baseline", "setting": "fTAS2R43; 300 μM aloin, transiently transfected cells", "value": 45, "unit": "%"}
    ]},
    {"compound": "O=C1NS(=O)(=O)c2ccccc21", "note": "[saccharin]", "values": [
      {"measurement": "stimulation of fTAS2R43", "setting": "fTAS2R43; 6.7 mM saccharin, transiently transfected cells", "value": "not stimulated"}
    ]},
    {"compound": "CCCc1cc(=O)[nH]c(=S)[nH]1", "note": "[PROP, 6-n-propylthiouracil]", "values": [
      {"measurement": "stimulation of fTAS2R38", "setting": "fTAS2R38 [1]; 30 μM PROP, transiently transfected cells", "value": "not stimulated"},
      {"measurement": "stimulation of stable fTAS2R38 cell line", "setting": "fTAS2R38 [2]; 30 μm PROP", "value": "not stimulated"}
    ]},
    {"compound": "CC[N+](CC)(CC(=O)Nc1c(C)cccc1C)Cc1ccccc1", "note": "[denatonium]", "values": [
      {"measurement": "activation over baseline", "setting": "fTAS2R43; 1 mM denatonium, transiently transfected cells", "value": 17, "unit": "%"}
    ]},
    {"compound": "CCCN(CCC)S(=O)(=O)c1ccc(C(=O)O)cc1", "note": "[probenecid, p-(dipropylsulfamoyl)benzoic acid]", "values": [
      {"measurement": "inhibition of the response to PTC", "setting": "fTAS2R38 [1]; 1 mM probenecid", "value": "inhibited"},
      {"measurement": "inhibition of the response to aloin", "setting": "fTAS2R43; 1 mM probenecid", "value": "inhibited"},
      {"measurement": "inhibition of the response to denatonium", "setting": "fTAS2R43; 1 mM probenecid", "value": "inhibited"}
    ]}
  ]
}
